Patent US5382586A, “Aryl (or heteroaryl)piperazinylalkylazole derivatives, their preparation and their application as medicaments” (priority 1991, dated 1995)

Columns and labels:
[1] = test system: conditioned avoidance response in male Wistar rats; test: conditioned avoidance response test (inhibition of the conditioned avoidance response; anxiolytic/tranquillising activity); type: in vivo, rat (male Wistar); settings: rat
Procedure: Male Wistar rats weighing 200 grammes which have been trained to jump over a barrier in an avoidance and escape cage (shuttle box) (Letica, reference LI 910 and LI 2700) within 30 seconds of their being introduced into the cage are used in this test.
The products having an anxiolytic or tranquillising activity suppress the conditioned avoidance response.
Training: day one: 11 trials at 3 minute intervals. Electric shock to the paws after 30 seconds (5 mA, 0.1 s, 10 s).
Days two and three: 2 trials per day, with the selected rats only [sum of the scores for the first day (with the exception of the first trial)>14].
Test day: groups formed by selected rats. Oral administration of the product or the vehicle 45 minutes before the start of the study.

[2] = test system: norepinephrine-induced death in rats; test: norepinephrine antagonism test in rats (antihypertensive activity); type: in vivo, rat (male Wister); settings: D = 40 mg/kg, i.p.; rat; norepinephrine 1.25 mg/kg i.v. after 2 hours
Procedure: This activity is manifested by the protection of animals before death induced by an intravenous injection of norepinephrine, which produces a hypertensive attack in rats.
Male Wister rats weighing 200 grammes are used in this test. The product to be studied is administered intraperitoneally and 1.25 mg/kg (i.v.) of norepinephrine are administered after 2 hours.
The initial administration dose in these studies is 40 mg/kg (i.p.).

[3] = test system: familiarisation process in mice; test: light box/dark box test: familiarisation process (improvement of cognition); type: in vivo, mouse; set-up: Time in the box, dark (D): unit not given here
Text: The influence of this product on the familiarisation process of mice in the light box/dark box test described by J. M. Barnes et al., (Pharmacol. Biochem. Behav., 1990, 35, 955-962) is studied. On the one hand, the effect on learning (the speed of familiarisation) and on the other hand the capacity for blocking contrary effects produced by escopolamine are studied.
The mouse is placed in the light zone of a box divided into two compartments, one brightly illuminated, the light box, and the other with little illumination, the dark box.
1) The number of times the mouse stands up on the hind paws in each compartment during a 5 minute period is counted (see Column 1 of the table below).
2) The activity in each compartment is given by counting the number of crossings through the squares which form the divisions of each compartment (see Column 2 of the table below).
3) The time passed in the dark box during the 5 minute counting period is determined (see Column 3 of the table below).
4) The initial latent period is determined, that is to say the time which elapses after the animal is placed in the light box, at the start of the test, before it enters the dark box (see Column 4 of the table below).
Two treatments with the vehicle are administered to the control animals per day. Two doses of 0.00001 ng/kg p.o. of compound 42 are administered per day to the animals treated with this product. The same operation is repeated daily for 5 days.
The animals learn to remain in the dark box for a longer period and to go into the box more rapidly.
On day six escopolamine (2×0.25 mg/kg, i.p.) is administered.
They recover the learned habit on day seven.

immobility of mice = test: desperate behaviour test (antidepressant activity); type: in vivo, mouse; settings: i.p.
Procedure: The desperate behaviour test in mice, described by R. D. Porsolt et al. (Arch. Int. Pharmacodyn. 1977, 229, 327-336), is used.
The animals are placed for 6 minutes in a cylinder containing water, from which they are not able to escape. The period of immobility between minutes 2 and 5 is determined for groups of 10 mice per dosage tested.
The product studied is administered i.p. 1 hour before the test. In this test the immobility of the animals is explained as being produced by their depressed state resulting from being faced with an adverse and insoluble situation in a hostile environment such as water.
In our test imipramine (30 mg/kg; i.p.) was used as reference product.

[4] = day 1, 0.00001 ng/kg, p.o., twice per day
[5] = day 2, 0.00001 ng/kg, p.o., twice per day
[6] = day 3, 0.00001 ng/kg, p.o., twice per day
[7] = day 4, 0.00001 ng/kg, p.o., twice per day
[8] = day 5, 0.00001 ng/kg, p.o., twice per day
[9] = day 6, after 2 treatments with escopolamine (0.25 mg/kg, i.p.), Example 42 at 0.00001 ng/kg p.o. twice per day
[10] = day 7, 0.00001 ng/kg, p.o., twice per day

Cc1nc(Cl)c(Cl)n1CCCCN1CCN(c2ncccn2)CC1.O=C(O)CC(O)(CC(=O)O)C(=O)O [Example 42, 4,5-dichloro-2-methyl-1-{4-[4-(2-pyrimidinyl)-1-piperazinyl]-butyl}-1H-imidazole citrate]
Activity % (inhibition of the conditioned avoidance response) ([1]; D = 80 mg/kg, p.o., 45 min before test): 82% | ED50 ([1]; po, 0.75 h): 24.5 mg/kg | Activity % (norepinephrine antagonistic antihypertensive activity) [2]: 0% | Activity within 5 min. period, dark (D) [3, 4]: 82 | Activity within 5 min. period, light (L) [3, 4]: 36 | Latent period L-D [3, 4]: 11 | No. of times standing erect within 5 min period, dark (D) [3, 4]: 79 | No. of times standing erect within 5 min period, light (L) [3, 4]: 23 | Time in the box, dark (D) [3, 4]: 60 | Activity within 5 min. period, dark (D) [3, 5]: 167 | Activity within 5 min. period, light (L) [3, 5]: 11 | Latent period L-D [3, 5]: 2 | No. of times standing erect within 5 min period, dark (D) [3, 5]: 147 | No. of times standing erect within 5 min period, light (L) [3, 5]: 10 | Time in the box, dark (D) [3, 5]: 80 | Activity within 5 min. period, dark (D) [3, 6]: 179 | Activity within 5 min. period, light (L) [3, 6]: 10 | Latent period L-D [3, 6]: 2 | No. of times standing erect within 5 min period, dark (D) [3, 6]: 156 | No. of times standing erect within 5 min period, light (L) [3, 6]: 8 | Time in the box, dark (D) [3, 6]: 79 | Activity within 5 min. period, dark (D) [3, 7]: 183 | Activity within 5 min. period, light (L) [3, 7]: 9 | Latent period L-D [3, 7]: 1.5 | No. of times standing erect within 5 min period, dark (D) [3, 7]: 161 | No. of times standing erect within 5 min period, light (L) [3, 7]: 9 | Time in the box, dark (D) [3, 7]: 83 | Activity within 5 min. period, dark (D) [3, 8]: 176 | Activity within 5 min. period, light (L) [3, 8]: 12 | Latent period L-D [3, 8]: 1 | No. of times standing erect within 5 min period, dark (D) [3, 8]: 151 | No. of times standing erect within 5 min period, light (L) [3, 8]: 11 | Time in the box, dark (D) [3, 8]: 82 | Activity within 5 min. period, dark (D) [3, 9]: 181 | Activity within 5 min. period, light (L) [3, 9]: 14 | Latent period L-D [3, 9]: 1.5 | No. of times standing erect within 5 min period, dark (D) [3, 9]: 172 | No. of times standing erect within 5 min period, light (L) [3, 9]: 10 | Time in the box, dark (D) [3, 9]: 81 | Activity within 5 min. period, dark (D) [3, 10]: 187 | Activity within 5 min. period, light (L) [3, 10]: 8 | Latent period L-D [3, 10]: 1 | No. of times standing erect within 5 min period, dark (D) [3, 10]: 181 | No. of times standing erect within 5 min period, light (L) [3, 10]: 8 | Time in the box, dark (D) [3, 10]: 83 | effect on the effects of escopolamine ([3]; escopolamine 2×0.25 mg/kg, i.p., day six): blocks the effects of escopolamine | cognition-improving activity ([3]; mice): has a cognition-improving activity | effect on the learning process ([3]; mice): improves the learning process | Period of immobility (immobility of mice; 1 mg/kg, p < 0.05, control 118 s): 64 s | antidepressant activity (reduction of the period of immobility) (immobility of mice; mice): significantly reduces the period of immobility
